In patent US10912780B2, “Heterocyclic compounds useful as anti-bacterial agents and method for production thereof” (Bugworks Research, Inc., priority 2017, dated 2021):
≈ marks a conversion by molar mass, not a printed value. Where “and” joins values, the source holds several entries; their conditions need not be identical. Equal entries are not always repeated.

Key:
[1] = tested on: P. aeruginosa [ATCC27853]; assay: Neutropenic lung infection model in rat; format: in vivo; conditions: 30 mg/kg, i.v. bolus, neutropenic rat, 24 h post infection
Method: The purpose of this study was to evaluate the efficacy of example 15 against P. aeruginosa [ATCC27853], following single dose intravenous infusion doses of 10, 30 and 100 mg/kg in a neutropenic lung infection model in rats
Prior to the start of the infection process, all animals were divided into different groups. All grouped cages of animals were carried to a procedure room, close to a biological safety cabinet. All infections were conducted in a biological safety cabinet, with appropriate personnel protection. Animals were placed into an induction chamber and anaesthesia was induced by exposing the animals to 3-5% Isoflurane in an oxygen flow set at approximately (˜) 1 liter per minute (LPM). Once the animals were in a sufficiently deep plane of anaesthesia as monitored by pedal reflex, they were removed and infected (2). […] A gentle mixing of inoculum between two animals was followed for uniform distribution.
The IV formulation vehicle used for example 15 was 10% of L-ascorbic acid in fresh MilliQ water (w/v) with pH adjusted to ˜4.0 with 1N Sodium hydroxide solution (w/v), and the dose volume was 10 mL/kg. Meropenem was formulated in saline. […] The dose levels of the test Example 15 were 10, 30 and 100 mg/kg.
All the animals in groups were sacrificed at 24 h post infection, as specified in experimental design, by an overdose of CO2 in an appropriate exposure chamber. The group 1 animals were sacrificed at 4 hrs post infection. The euthanized animals were dipped into 70% ethanol for surface decontamination. Entire Lung was aseptically isolated, weighed and placed into 1 mL of sterile CSDB broth, and homogenized (Omni Tip (220 V hand held)). Serial ten-fold dilutions of the lungs homogenates were prepared in sterile CSD broth and 0.05 mL of four dilutions for each tissue was plated onto CSDA agar plates. Bacterial colonies were enumerated following overnight incubation at 37° C. Bacterial densities were estimated as Log10 CFU/g lung. The Mean±SD Log10 CFU/g lung was estimated in each group. Significant differences between group means and control were analyzed by one way ANOVA, followed by a Dunnett's multiple comparison test, using Graphpad Prism at 95% confidence levels.

E. coli [ATCC25922] = assay: Urinary tract infection (UTI) rat model; format: in vivo; conditions: 30 mg/kg, i.v. bolus, rat UTI, 24 h post infection
Method: The purpose of this study is to assess the efficacy of Example 15 against E. coli [ATCC25922] following single dose intravenous infusion doses of 3, 10 and 30 mg/kg in a Urinary Tract Infection Rat Model
Prior to the start of the infection process all animals were divided into different groups. All grouped cages of animals were carried to a procedure room, close to a biological safety cabinet. All infections were conducted in a biological safety cabinet, with appropriate personnel protection. Animals were anaesthetized by intraperitoneal injection of ketamine & xylazine (60+10 mg/kg i.p.) cocktail. Once the animals were in a sufficiently deep plane of anaesthesia as monitored by pedal reflex, the abdominal wall of each rat was shaved with electric clippers and the skin was cleansed with 10% povidine iodine. After a 1.5 to 2 cm lower abdominal wall incision, the abdominal wall muscles were separated with blunt dissection. […] After the replacement of the bladder to its original location, the abdominal muscles were approximated using suture and the skin was closed. The wounds were cleansed using 10% povidine iodine.
The IV formulation vehicle used was 10% of L-ascorbic acid in fresh MilliQ water (w/v) with pH adjusted to 4.0 with 1N Sodium hydroxide solution (w/v), and the dose volume was 10 mL/kg. Meropenem was prepared in MilliQ water and the pH of solution was adjusted to 4.5 using HCl. Four hours post infection, animals were dosed intravenously, as single doses (for test compounds), as a constant rate infusion, under Ketamine 60 mg/kg IP+Xylazine 10 mg/kg IP anesthesia, at a dose volume of 10 ml/kg, at the rate of 0.03 ml/min. The dose levels of the test compounds were 3, 10 and 30 mg/kg. Meropenem was administered as a single bolus dose at a dose volume of 5 ml/kg. All the animals were sacrificed at 24 h post infection, as specified in experimental design, by an overdose of CO2 in an appropriate exposure chamber. The group 1 animals were sacrificed at 4 h post infection.
The euthanized animals were dipped into 70% ethanol for surface decontamination. The organs were removed aseptically; the bladder was cut away near the urethra, and the kidneys were removed by blunt dissection to avoid bleeding. The bladder and each kidney separately were be homogenized in PBS. The CFU per milliliter homogenate of bladder, & kidney were determined after 18 to 24 h of incubation at 37° C.

[2] = tested on: P. aeruginosa clinical strains; assay: Antibacterial susceptibility studies (MIC50 and MIC90) with clinical strains, CLSI guidelines; format: cell-based
[3] = tested on: K. pneumoniae clinical strains; assay: as above; format: cell-based
[4] = tested on: A. baumannii clinical strains; assay: as above; format: cell-based
[5] = tested on: E. cloacae clinical strains; assay: as above; format: cell-based
E. coli clinical strains = assay: as above; format: cell-based
[6] = Enterobacter cloacae, E. cloacae clinical strains (88 strains)

In the case of `C[C@@H](O)[C@H]1C(=O)N2C(C(=O)O)=C(S[C@@H]3CN[C@H](C(=O)N(C)C)C3)[C@H](C)[C@H]12` [Meropenem, reference compound], the “MEAN ± SD (Log 10 CFU/g Lung)” value [1] is reported as 5.04 ± 0.14 Log 10 CFU/g Lung, the “Mean Log 10CFU/g lung reduction (wrt 4 h PI control 5.78 Log10CFU/g lung)” value [1] is reported as 0.74 Log10CFU/g lung and the “Log 10 CFU/g Lung” value ([1]; individual animals) is reported as 5.03 Log 10 CFU/g Lung and 5.18 Log 10 CFU/g Lung and 4.90 Log 10 CFU/g Lung. The “MEAN ± SD (Log10 CFU/g kidneys)” value (E. coli [ATCC25922]) was 4.41 ± 0.70 Log10 CFU/g kidneys, the “Mean Log10 CFU/g kidney reduction (wrt 4 h PI control: 6.03 Log10 CFU/g kidneys)” value (E. coli [ATCC25922]) was 1.62 Log10 CFU/g kidneys and the “MEAN ± SD (Log 10 CFU/ml Bladder)” value (E. coli [ATCC25922]; bladder) was 4.34 ± 0.32 Log 10 CFU/ml. For the same compound, the “Mean Log10 CFU/ml Bladder reduction (wrt 4 h PI control: 6.49 CFU/ml Bladder)” value (E. coli [ATCC25922]; bladder) was 2.15 Log10 CFU/ml, the “Log10 CFU/g (Left Kidney)” value (E. coli [ATCC25922]; individual animals) was 4.62 Log10 CFU/g and 4.41 Log10 CFU/g and 5.19 Log10 CFU/g and the “Log10 CFU/g (Right Kidney)” value (E. coli [ATCC25922]; individual animals) was 4.83 Log10 CFU/g and 3.13 Log10 CFU/g and 4.28 Log10 CFU/g. The “Log 10 CFU/ml Bladder” value (E. coli [ATCC25922]; individual animals, bladder) was 4.43 Log 10 CFU/ml and 4.62 Log 10 CFU/ml and 3.99 Log 10 CFU/ml, the MIC ATCC27853 ([2]; P. aeruginosa reference strain ATCC27853, no unit in this line) was 0.5 µg/mL (≈ 1.3 µM) and the MIC50 ([2]; Pseudomonas aeruginosa) was 2 µg/mL (≈ 5.22 µM). For the same compound, the MIC90 ([2]; Pseudomonas aeruginosa) was 8 µg/mL (≈ 20.9 µM), the Minimum ([2]; lowest MIC among P. aeruginosa clinical strains (215 strains; Example 15: 176), no unit in this line) was 0.03 and the MIC ATCC13883 ([3]; K. pneumoniae reference strain ATCC13883, no unit in this line) was 0.06 µg/mL (≈ 0.156 µM). The MIC50 ([3]; Klebsiella pneumoniae) was 1 µg/mL (≈ 2.61 µM), the MIC90 ([3]; Klebsiella pneumoniae) was 16 µg/mL (≈ 41.7 µM) and the Minimum ([3]; lowest MIC among K. pneumoniae clinical strains (211 strains; Example 15: 176), no unit in this line) was 0.03. The MIC ATCC19606 ([4]; A. baumannii reference strain ATCC19606, no unit in this line) was 0.5 µg/mL (≈ 1.3 µM), the MIC50 ([4]; Acinetobacter baumannii) was 8 µg/mL (≈ 20.9 µM) and the MIC90 ([4]; Acinetobacter baumannii) was 32 µg/mL (≈ 83.4 µM). The Minimum ([4]; lowest MIC among A. baumannii clinical strains (169 strains; Example 15: 132), no unit in this line) was 0.03125, the MIC50 [5, 6] was 0.25 µg/mL (≈ 0.652 µM) and the MIC90 [5, 6] was 16 µg/mL (≈ 41.7 µM). The Minimum ([5]; lowest MIC among E. cloacae clinical strains (88 strains), no unit in this line) was 0.06, the MIC ATCC25922 (E. coli clinical strains; E. coli reference strain ATCC25922, no unit in this line (MIC50/MIC90 lines: μg/ml)) was 0.06 µg/mL (≈ 0.156 µM) and the MIC50 (E. coli clinical strains; Escherichia coli) was 0.06 µg/mL (≈ 0.156 µM). The MIC90 (E. coli clinical strains; Escherichia coli) was 4 µg/mL (≈ 10.4 µM) and the Minimum (E. coli clinical strains; lowest MIC among E. coli clinical strains (201 strains; Example 15: 176), no unit in this line) was 0.03.
